Results on 6 compounds are retold here after US20110294772A1, “USE OF CYCLOSQUARAMIDE COMPOUNDS AS ANTI-TUMOUR AGENTS” (priority 2008, published 2011).

The term IC50 denotes the concentration at which inhibition is half-maximal.

In the first test the test system is Jeko-1. As to the kind of experiment: cell viability assay. The test is classed as cell-based, human. The conditions noted are these: Homo sapiens, JeKo-1, 48 h, cell viability, total incubation period 48 h; read-out: IC50 (μM) against Jeko-1 cells. How it is done: The IC50 in cell viability assays were determined for some of the macrocycles prepared in Jeko-1 (B-cell lymphoma (MCL) type cells. With a total incubation period of 48 h.
Regarding `CSCCC1Nc2c(c(=O)c2=O)NCCCN(C)CCCNc2c(c(=O)c2=O)NCCCN(C)CCCNc2c(c(=O)c2=O)NCCCN(C)CCCNc2c(c(=O)c2=O)NCCCN(C)CCCNc2c(c(=O)c2=O)NCCCNC1=O` (stereo not drawn) [Compound 3], the IC50 was 34 µM. Same read-out and setting: in the case of `CSCCC1Nc2c(c(=O)c2=O)NCCCN(C)CCCNc2c(c(=O)c2=O)NCCCN(C)CCCNc2c(c(=O)c2=O)NCCCN(C)CCCNc2c(c(=O)c2=O)NCCCN(C)CCCNc2c(c(=O)c2=O)NCCCN(C)CCCNc2c(c(=O)c2=O)NCCCNC1=O` (stereo not drawn) [Compound 4] it was 24 µM.

The same test, now with this note: cell viability, total incubation period 48 h; read-out: IC50 (μM) against Jeko-1 cells.
On to `CN1CCCNc2c(c(=O)c2=O)NCCCN(C)CCCNc2c(c(=O)c2=O)NCCCN(C)CCCNc2c(c(=O)c2=O)NCCCN(C)CCCNc2c(c(=O)c2=O)NCCCN(C)CCCNc2c(c(=O)c2=O)NCCCN(C)CCCNc2c(c(=O)c2=O)NCCC1` [Compound 1], for which the IC50 came to 27 µM. Consider `CN1CCCNc2c(c(=O)c2=O)NCCCN(C)CCCNc2c(c(=O)c2=O)NCCCN(C)CCCNc2c(c(=O)c2=O)NCCCN(C)CCCNc2c(c(=O)c2=O)NCCCN(C)CCCNc2c(c(=O)c2=O)NCCCN(C)CCCNc2c(c(=O)c2=O)NCCC1` [Compound 2], for which the IC50 turned out to be 45 µM. On to `CN1CCCNc2c(c(=O)c2=O)NCCCN(C)CCCNc2c(c(=O)c2=O)NCCCN(C)CCCNc2c(c(=O)c2=O)NCCCN(C)CCCNc2c(c(=O)c2=O)NCCCN(C)CCCNc2c(c(=O)c2=O)NCCCN(C)CCCNc2c(c(=O)c2=O)NCCC1` [Compound 5], for which the IC50 stood at 50 µM. In the case of `CN1CCCNc2c(c(=O)c2=O)NCCCN(C)CCCNc2c(c(=O)c2=O)NCCCN(C)CCCNc2c(c(=O)c2=O)NCCCN(C)CCCNc2c(c(=O)c2=O)NCCCN(C)CCCNc2c(c(=O)c2=O)NCCCN(C)CCCNc2c(c(=O)c2=O)NCCC1` [Compound 11], the IC50 was determined as 9.4 µM.
